pIC50: −log10 of the molar value. “Also recorded” adds a separate entry of the source.
How the values were obtained:
SKOV3 = assay: MTT antiproliferative assay, SKOV3; type: cell-based; details: Homo sapiens, SK-OV-3, SKOV3, 48 h, read-out: In vitro cell growth inhibition IC50, SKOV3
Protocol: (§1) 5000 tumor cells per well were seeded into 96-well plate and allowed to adhere overnight. Cells were treated with various concentrations of tested compounds or DMSO (0.2%, as negative control) for 48 h. Then, the medium along with tested compounds or DMSO was discarded and […] per well MTT containing medium (0.5 mg/mL) was added. After incubation at 37° C. for 4 h, the MTT-containing medium was replaced by DMSO (150 μL per well) to dissolve the formazan crystals. Absorbance of the resulting solution was measured by microplate reader (Biotech ELx800) at 540 nm wavelength. Growth inhibition rates were calculated with the absorbance. Half maximal inhibitory concentration (IC50) of each compound was calculated using GraphPad Prism, version 6.0.

Hela = assay: MTT antiproliferative assay, Hela; type: cell-based; details: Homo sapiens, 48 h, read-out: In vitro cell growth inhibition IC50, Hela
Protocol: as §1

tubulin [1] = assay: Immunoblotting analysis of polymerized/depolymerized tubulin; type: cell-based, human; details: Hela cells, 6 h
Protocol: After being treated with diluent (0.2% DMSO), tested compound, CA-4 or PTX for 6 h, Hela cells were lysed with microtubulestabilizing buffer, containing 100 mM PIPES, pH 6.8, 1 mM MgCl2, 2 mM EGTA, 0.5% NP-40, 2 M glycerol, 5 μM PTX and protease inhibitors cocktail (Roche), and the lysate was centrifuged at 15,000 rpm for 15 min. Supernatant containing depolymerized tubulin was carefully collected, whereas pellet (polymerized tubulin) was further dissolved in SDS-lysis buffer (Beyotime, China). Equal amounts of supernatant and dissolved pellet were subjected to immunoblotting analysis as described above using a tubulin antibody (Proteintech).

cellular apoptosis = assay: Cell apoptosis analysis (Annexin V/PI); type: cell-based; details: 48 h, Annexin-V/PI flow cytometry
Protocol: Cell apoptosis was detected using FITC Annexin V Apoptosis Detection Kit (BD Biosciences) according to manufacturer's instructions. Briefly, cells were incubated with indicated concentrations of 69, 70 and 97, CA-4 as positive control or diluent (0.2% DMSO) as negative control for 48 h. Then the cells were harvested, washed twice with PBS, and re-suspended in binding buffer. After being stained with Annexin-V and PI for 15 min in the dark place, cells were subjected to flow cytometry (Cytomics FC 500 MPL, Beckman Coulter) analysis. The results were indicated as mean values from three independent determinations.

[2] = test system: p-histone H3, cyclin B1 and BuBR1; assay: Cell cycle associated proteins assay; type: cell-based, human; details: HeLa cells, 24 h, Western blot and qPCR
Protocol: A. HeLa cells were treated with 69, 70, 97 or DMSO for 24 h. After being harvested, the cells were lysed, and the concentrations of total protein were determined by BCA protein assay kit (Beyotime, China). […] The membrane was blocked with 5% BSA in TBST for 1.5 h, then incubated overnight with specific primary antibodies (Proteintech) at 4° C. After being washed three times by TBST, the membrane was incubated with specific secondary antibodies (Abnova, Taipei, China) at room temperature for 2 h. Finally, chemiluminescent reagents (Millipore) were employed to detect the protein bands.
(§2) B. Quantitative PCR assay: HeLa cells were treated with 69, 70 or 97. The expression level of mRNA of target proteins was tested with qPCR kit (Takara).

[3] = test system: Bax, p53 and cleaved-PARP; assay: Expression level of apoptosis associated proteins; type: cell-based, human; details: HeLa cells, Western blot and qPCR
Protocol: A. Western blotting: After being treated with candidate compound, cells were harvested and lysed. Then, the lysate was isolated by ultracentrifuge and quantified by BCA assay according to the protocol. After being denatured, equivalent protein of each sample was separated by SDS-PAGE gel and wet-transferred onto […] nitrocellulose membrane. After being blocked by PBS containing 5% skim milk, the membrane was incubated with primary antibody at 4° C. overnight and secondary antibody at room temperature for 2 h and then visualized by enhanced chemiluminescence kit (Thermo Fisher, USA), sequentially.
as §2

KM mice = assay: Acute toxicity assay; type: in vivo
Protocol: KM mice were housed individually in a specific pathogen free facility. Groups of mice (n=10 per group, half male and half female) were injected intraperitoneally once with various dosages of 69 (95, 70, 50, 35, 25 mg/kg), 70 (500, 425, 350, 275, 200 mg/kg), 97 (275, 200, 150, 125 and 100 mg/kg) or vehicle (8.3% cremohorp EL and 8.3% alcohol in PBS) as negative control, respectively. 69, 70 and 97 was dissolved in cremeohore EL and alcohol mixture (1:1, v/v) and further diluted with PBS (1:5, v/v). The death of mice were monitored daily and recorded up to 14 days after injection.

MDA-MB-231 cells = assay: Colony formation assay; type: cell-based, human; details: 48 h treatment, 7-10 days growth
Protocol: 1000 MDA-MB-231 cells per well were seeded into 6-well plate at a single cell density and were cultured at 37° C. for 48 h. After being treated with indicated concentrations of 69, 70 and 97, CA-4 as positive control, or diluent (0.2% DMSO) as negative control for 48 h, the agents containing medium was replaced by fresh medium to allow cell growth for additional 7-10 days. Then the cells were fixed with methanol and stained with gentian violet for 30 min. The number of colonies which consisted of more than 50 cells were counted. The results were indicated as mean values from three independent determinations.

tubulin [4] = assay: Immunofluorescent analysis of tubulin morphology; type: cell-based, human; details: SKOV-3 cells, 24 h
Protocol: After treatment with diluent (0.2% DMSO) or tested compounds at indicated concentrations for 24 h, SKOV-3 cells were fixed with methanol, permeabilized with 0.1% Triton X-100 in PBS and blocked by goat serum. Then the cells were incubated with a-tubulin antibody at 4° C. overnight, followed by incubation with Alexa 488 labeled secondary antibody (Jackson ImmunoResearch) at RT for 1 h. After being stained with DAPI, cells were examined and photographed with a Leica SP5 co-focal fluorescence microscope.

A2780 cells = assay: Xenografts tumor growth assay in nude mice; type: in vivo, Balb/c nude mice; details: A2780 xenograft
Protocol: 6 weeks old female Balb/c nude mice were purchased from Shanghai Slac Laboratory Animal Co. Ltd. (Shanghai, China). 2*10^6 A2780 cells suspended in 0.2 mL PBS per mouse was injected subcutaneously into the nude mice. […] Administration of agents or vehicle, or agents and measurement of tumor volumes with a digital caliper was done once every 2 days. Tumor volumes were calculated as volume=shortest diameter (W)^2*longest diameter (L)*0.52. When the average tumor volumes of vehicle treated group reached 2000 mm^3 in diameter, the mice were sacrificed and the tumors were isolated and weighed. Visceral organs of the mice as well as solid tumors were further analyzed by H&E staining.

COc1ccc([C@H]2C(=O)C(=O)N2c2cc(OC)c(OC)c(OC)c2)cc1OCc1ccccc1 [Compound 71, (S)-4-(3-(benzyloxy)-4-methoxyphenyl)-1-(3,4,5-trimethoxyphenyl)azetidine-2,3-dione]
pIC50 (SKOV3): < 5.00
pIC50 (Hela): < 5.00

COc1ccc([C@H]2[C@H](CO)C(=O)N2c2cc(OC)c(OC)c(OC)c2)cc1O [Compound 69, (3R,4R)-4-(3-hydroxy-4-methoxyphenyl)-3-(hydroxymethyl)-1-(3,4,5-trimethoxyphenyl)azetidin-2-one]
polymerized tubulin (immunoblotting) (tubulin [1]): significantly inhibit tubulin aggregation; also recorded: dramatically reduction of polymerized tubulin
cellular apoptosis (cellular apoptosis): significantly promote apoptosis; also recorded: significantly induce cellular apoptosis
expression of p-histone H3, cyclin B1 and BuBR1 [2]: significantly promote the expression of phosphorylated histone H3, cyclin B1, and mitotic checkpoint protein BuBR1
expression of Bax, p53 and cleaved-PARP [3]: significantly promote the expression of the proapoptotic protein Bax, the tumor suppressor gene p53, and the cleaved DNA repair enzyme; also recorded: significantly induce the expression of Bax, p53 and cleaved-PARP
No. of dead mice 5-14 days (KM mice; 25 mg/kg i.p. once): 0
No. of dead mice 1 day (KM mice; 25 mg/kg i.p. once): 0
No. of dead mice 2 days (KM mice; 25 mg/kg i.p. once): 0
No. of dead mice 3 days (KM mice; 25 mg/kg i.p. once): 0
No. of dead mice 4 days (KM mice; 25 mg/kg i.p. once): 0
No. of dead mice Total death (KM mice; 25 mg/kg i.p. once): 0
Survival (%) on day 14 (KM mice; 25 mg/kg i.p. once): 100%
No. of dead mice 5-14 days (KM mice; 35 mg/kg i.p. once): 0
No. of dead mice 1 day (KM mice; 35 mg/kg i.p. once): 0
No. of dead mice 2 days (KM mice; 35 mg/kg i.p. once): 0
No. of dead mice 3 days (KM mice; 35 mg/kg i.p. once): 1
No. of dead mice 4 days (KM mice; 35 mg/kg i.p. once): 0
No. of dead mice Total death (KM mice; 35 mg/kg i.p. once): 1
Survival (%) on day 14 (KM mice; 35 mg/kg i.p. once): 90%
No. of dead mice 5-14 days (KM mice; 50 mg/kg i.p. once): 0
No. of dead mice 1 day (KM mice; 50 mg/kg i.p. once): 0
No. of dead mice 2 days (KM mice; 50 mg/kg i.p. once): 0
No. of dead mice 3 days (KM mice; 50 mg/kg i.p. once): 1
No. of dead mice 4 days (KM mice; 50 mg/kg i.p. once): 0
No. of dead mice Total death (KM mice; 50 mg/kg i.p. once): 1
Survival (%) on day 14 (KM mice; 50 mg/kg i.p. once): 90%
No. of dead mice 5-14 days (KM mice; 70 mg/kg i.p. once): 1
No. of dead mice 1 day (KM mice; 70 mg/kg i.p. once): 0
No. of dead mice 2 days (KM mice; 70 mg/kg i.p. once): 0
No. of dead mice 3 days (KM mice; 70 mg/kg i.p. once): 4
No. of dead mice 4 days (KM mice; 70 mg/kg i.p. once): 2
No. of dead mice Total death (KM mice; 70 mg/kg i.p. once): 7
Survival (%) on day 14 (KM mice; 70 mg/kg i.p. once): 30%
No. of dead mice 5-14 days (KM mice; 95 mg/kg i.p. once): 1
No. of dead mice 1 day (KM mice; 95 mg/kg i.p. once): 0
No. of dead mice 2 days (KM mice; 95 mg/kg i.p. once): 0
No. of dead mice 3 days (KM mice; 95 mg/kg i.p. once): 6
No. of dead mice 4 days (KM mice; 95 mg/kg i.p. once): 1
No. of dead mice Total death (KM mice; 95 mg/kg i.p. once): 8
Survival (%) on day 14 (KM mice; 95 mg/kg i.p. once): 20%
colony formation (MDA-MB-231 cells): significantly inhibit the formation of colonies of cancer cells
tubulin assembly (immunofluorescence) (tubulin [4]): significantly inhibit tubulin aggregation; also recorded: strongly inhibit tubulin assembly in cancer cells
tumor growth in vivo (A2780 cells; i.p. once every 2 days, 69 7.5 mg/kg, 70 12.5 mg/kg, 97 4 or 8 mg/kg): significantly inhibit tumor growth in vivo; also recorded: anti-tumor activities in vivo
H&E staining of liver, kidney and spleen (A2780 cells; treated groups): no abnormal areas are observed in tissue staining of liver, kidney and spleen; also recorded: no detectable abnormalities were observed in liver, kidney and spleen
H&E staining of tumor sections (necrosis) (A2780 cells; treated groups): cause tumor tissue to produce necrotic areas; also recorded: extensive areas of necrosis or cell death

Source: patent US20220251039A1, “Diaryl-B-Lactam Compound and Preparation Method and Pharmaceutical Use Thereof” (Fudan University, priority 2016, published 2022)
